Counter-ions that a name gives are not always drawn.
What was measured:
D2 receptors = biological target: T1, D2 receptors (Chlorocebus aethiops, UniProt P52702); assay: Assay for D2 receptor binding activity (3H-YM 09151-2 displacement); parameters: species or system African Green monkey; conditions: COS cell pellets with recombinant receptor; 0.5 nM 3H-YM 09151-2; test compounds are acid addition salts
T1 construct: expressed in transfected cells; host or cells: COS cells
Protocol: Assay for D2 and D4 Receptor Binding Activity
Pellets of COS cells containing recombinantly produced D2 or D4 receptors from African Green monkey are used for the assays. The sample is homogenized in 100 volumes (w/vol) of 0.05 M Tris HCl buffer at 4° C. and pH 7.4. The sample is then centrifuged at 30,000× g and resuspended and rehomogenized. The sample is again centrifuged as described above and the final tissue sample is frozen until use. The tissue is resuspended 1:20 (wt/vol) in 0.05 M Tris HCl buffer containing 100 mM NaCl.
Incubations are carried out at […] and contain 0.4 ml of tissue sample, 0.5 nM ^3H-YM 09151-2 (Nemonapride, cis-5-Chloro-2-methoxy-4-(methylamino)-N-(2-methyl-2-(phenylmethyl)-3-pyrrolidinyl)benzamide)and the test compound in a total incubation of 1.0 ml. Nonspecific binding is defined as that binding found in the presence of 1 mM spiperone; without further additions, nonspecific binding is less than 20% of total binding. Binding characteristics of examples of the invention for the D2 and D4 receptor subtypes are shown in Table 2 for […].

T1 sequence (P52702 whole entry): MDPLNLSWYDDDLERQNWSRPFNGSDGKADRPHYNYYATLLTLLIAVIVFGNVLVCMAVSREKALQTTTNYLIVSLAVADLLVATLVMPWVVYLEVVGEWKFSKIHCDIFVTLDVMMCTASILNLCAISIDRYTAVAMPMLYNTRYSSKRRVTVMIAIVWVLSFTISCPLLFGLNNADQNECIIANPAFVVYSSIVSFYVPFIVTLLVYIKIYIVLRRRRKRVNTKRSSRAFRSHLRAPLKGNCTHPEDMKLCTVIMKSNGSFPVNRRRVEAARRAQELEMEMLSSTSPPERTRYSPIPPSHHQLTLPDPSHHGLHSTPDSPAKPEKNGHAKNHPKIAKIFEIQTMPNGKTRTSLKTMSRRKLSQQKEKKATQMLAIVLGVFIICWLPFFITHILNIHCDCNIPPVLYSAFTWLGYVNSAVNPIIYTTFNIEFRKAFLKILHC

Structure (SMILES) | Ki (D2 receptors) [µM] | melting point [°C]
Fc1cnc(N2CCN(CCNC3=Nc4ccccc4OC3)CC2)nc1 [Compound 6, 3-(1-[2-{(4-[5-Fluoropyrimidin-2-yl])piperazin-1-yl}]ethyl)amino-2H-1,4-benzoxazine fumarate] | > 0.1 | 
c1cnc(N2CCN(CCCNC3=Nc4ccccc4SC3)CC2)nc1 [Compound 4] | > 0.1 | 
c1cnc(N2CCN(CCCCNC3=Nc4ccccc4OC3)CC2)nc1 [Compound 1, 3-(1-[4-{(4-Pyrimidin-2-yl)piperazin-1-yl}]butyl) amino-2H-1,4-benzoxazine Difumarate] | > 1 | 
Fc1cnc(N2CCN(CCNC3=Nc4ccccc4OC3)CC2)nc1 (as salt: fumarate) [Compound 6, 3-(1-[2-{(4-[5-Fluoropyrimidin-2-yl])piperazin-1-yl}]ethyl)amino-2H-1,4-benzoxazine fumarate] |  | 163 to 164
